Source: patent US11026443B2, “Use of sedoheptulose as a nutritional supplement” (C7 SUGAR GMBH, priority 2013, dated 2021)

Legend:
primary human adipocytes [1] = assay: mRNA expression (RT-PCR) in primary human adipocytes differentiated in GF or GFS media; assay type: cell-based; conditions: GFS (1 g/L each sugar) vs GF (1.5 g/L each), eight days differentiation
Protocol: Stromal vascular fraction cells (SVFs) from subcutaneous white adipose tissue of a patient undergoing abdominal surgery were isolated as described before (Lindroos et al, Cell Metab. (2013), Jul. 2; 18(1):62-74.). Briefly, adipose tissue was digested with Collagenase II (Worthington) and filtered. SVFs were separated from mature adipocytes by centrifugation, followed by the lysis of erythrocytes in the SVF-fraction (Buffer EL, Qiagen). The purified SVFs were cultured in DMEM/F12, 10% FBS (Gibco, Life Technologies). […] Two days after confluence (day 0), differentiation was induced by adding 1 μM dexamethasone, 1.74 μM insulin, 5 μM troglitazone, […], 17 μM pantothenic acid and 33 μM biotin. After two days, IBMX and dexamethasone were omitted, while insulin and troglitazone were removed on day 4. 50% of the medium was replaced on day 6. Two days later, the cells were harvested for RNA isolation (RNeasy mini kit, Qiagen). Briefly, total RNA was extracted and reverse-transcribed using commercial kits (QIAGEN, Applied Biosystems). Quantitative real-time PCRs were performed on an […] real-time cycler using iTaq SYBR Green Supermix with ROX (BioRad) to measure CARKL, adiponectin, UCP-1, TNFa, IL-6, MCP-1, and beta-actin expression as previously described ([…] et al., Cell Metab. 15 (2012), 813-826). […] Relative expression of target gene was calculated by the delta-delta CT method.

[2] = test system: bone marrow derived macrophages; assay: Cytokine secretion (ELISA) by bone marrow derived macrophages, basal and LPS-induced; assay type: cell-based, mouse; conditions: ELISA of supernatant over two days, GFS vs GF media
Protocol: (§1) Mouse bones were isolated from male wild-type and CARKL overexpressing mice and bone marrow wash flushed, washed and cleared from red blood cells by lysis, and subsequently differentiated in DMEM containing 25 mM glucose and 20 ng/ml M-CSF. After 4 days, cells for osteoclast differentiation were harvested and seeded in corning osteo assay plates with differentiation media (see below), and for primary bone marrow derived macrophages (BMDM) the medium was renewed and further supplemented with M-SCF for two days. Differentiated BMDM were then seeded in respective DMEM-media containing 10% FBS and indicated carbohydrate mixes at 3 g/L (glucose and fructose (GF), or glucose, fructose and sedoheptulose (GFS)) at least two days before experiments were performed.

mature murine adipocytes = assay: Cytokine mRNA expression in mature murine adipocytes (ceiling culture) in GF or GFS media; assay type: cell-based, mouse; conditions: three days in sedoheptulose containing media vs glucose and fructose alone
Protocol: Anterior and posterior subcutaneous adipose tissue and epididymal white adipose tissue was isolated from transgenic CARKL-mice and wild-type littermate controls. Adipose tissue was digested as described above for the human sample. After centrifugation, the layer of floating mature adipocytes was removed and re-centrifuged at 100 rcf for 10 minutes. 150 μL of packed adipocytes were cultured under a floating coverslip in six-well plates, in DMEM/F12, 15% calf serum (PAA). 24 hours after isolation, the wells were washed twice with PBS and the medium was exchanged to DMEM/F12 with a total carbohydrate load of 3 g/L, containing 1.5 g/L glucose and fructose, or 1 g/L each of glucose, fructose and sedoheptulose, respectively. Three days later, the cells were harvested for RNA isolation using TRIreagent (Sigma).
(§2) Briefly, total RNA was extracted and reverse-transcribed using commercial kits (QIAGEN, Applied Biosystems). Quantitative real-time PCRs were performed on an AbiPRISM 7900HT real-time cycler using iTaq SYBR Green Supermix with ROX (BioRad) to measure CARKL, adiponectin, UCP-1, TNFa, IL-6, MCP-1, and beta-actin expression as previously described (Haschemi et al., Cell Metab. 15 (2012), 813-826). Expression of target gene was normalized to beta-actin expression. Relative expression of target gene was calculated by the delta-delta CT method.

[3] = biological target: T1, Glucose-6-phosphate dehydrogenase (G6PD) (Mus musculus, UniProt Q00612); assay: Glucose-6-phosphate dehydrogenase activity assay (enzyme histochemistry) in hepatocytes; assay type: cell-based; conditions: WT cells incubated in cell culture media with sedoheptulose; data not shown
T1 construct: Hepatocytes were isolated from male wild-type and CARKL overexpressing mice; endogenous in cells; host or cells: primary mouse hepatocytes (WT and CARKL-transgenic)
T1 sequence (Q00612 whole entry): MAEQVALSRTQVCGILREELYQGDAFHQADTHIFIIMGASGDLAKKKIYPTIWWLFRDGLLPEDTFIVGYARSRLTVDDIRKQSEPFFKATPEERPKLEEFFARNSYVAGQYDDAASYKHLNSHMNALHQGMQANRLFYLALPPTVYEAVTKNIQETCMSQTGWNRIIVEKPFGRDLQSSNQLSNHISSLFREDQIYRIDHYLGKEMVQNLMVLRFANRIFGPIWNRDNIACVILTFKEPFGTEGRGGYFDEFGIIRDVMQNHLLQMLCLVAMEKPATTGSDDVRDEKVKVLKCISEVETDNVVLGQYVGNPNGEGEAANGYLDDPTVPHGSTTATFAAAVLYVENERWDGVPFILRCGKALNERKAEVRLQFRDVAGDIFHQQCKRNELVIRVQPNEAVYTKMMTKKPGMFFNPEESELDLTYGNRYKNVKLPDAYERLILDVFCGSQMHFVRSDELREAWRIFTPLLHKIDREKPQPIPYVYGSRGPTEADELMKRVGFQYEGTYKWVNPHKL
Protocol: (§3) Hepatocytes were isolated from male wild-type and CARKL overexpressing mice after the mice were sacrificed by hepatic in situ collagenase perfusion. After perfusion, the liver was quickly removed, minced, and filtered through a cell strainer (Fisher Scientific, Inc) into a 50 ml sterile tube. Hepatocytes in the resulting filtrate were purified from the nonparenchymal cells by centrifugation steps. The isolated hepatocytes were seeded into plates at a concentration of 0.25×10^6/ml in respective DMEM-media containing 10% FBS and indicated carbohydrate mixes at 3 g/L (glucose and fructose (GF), or glucose, fructose and sedoheptulose (GFS)) at least two days before experiments were performed.
Cells were grown on polystyrene vessel tissue culture treated glass slides, snap frozen in liquid nitrogen and kept at −80° C. The enzyme histochemical procedure was based on the tetrazolium salt method as described by Van Noorden and Frederiks. […] The medium was freshly prepared immediately before incubation. Control reactions additionally contained 40 mM glucosamine-6-phosphate. Cells were incubated at room temperature for 15 minutes under continuous mixing by orbital shaker. After incubation, cells were washed 3×5 minutes in 60° C. phosphate buffered saline, dried, and mounted in glycerol gelatin, and photographed within one day at ×10 magnification.

osteoclasts = assay: In vitro bone resorption assay (osteoclast pit formation); assay type: cell-based, mouse
Protocol: as §1, with “performed. Osteoclast precursor cells (bone marrow cells treated with 20 ng/ml M-CSF for 4 days) were plated in 24-well Corning Osteo Assay plate in the presence of 10 ng/ml M-CSF and 100 ng/ml RANKL in alpha-MEM medium containing 10% FBS and 3 g/L either glucose and fructose (GF), or glucose, fructose, and sedoheptulose (GFS). The Medium was renewed every third day. […] Each well was entirely photographed by TissueFax with an ×20 objective and all visible resorption pits were counted and analysed blinded.” for “performed.”

[4] = test system: primary murine hepatocytes; assay: IL-6 mRNA expression in primary murine hepatocytes in GF or GFS media; assay type: cell-based, mouse; conditions: hepatocytes pre-cultured two days with sedoheptulose (GFS) vs GF
Protocol: as §3, §2

primary human adipocytes [5] = assay: Oxygen consumption rate and extracellular acidification rate (XF-Analyzer) in primary human adipocytes; assay type: cell-based; conditions: human adipocytes differentiated and cultured in sedoheptulose containing media vs controls
Protocol: Stromal vascular fraction cells (SVFs) from subcutaneous white adipose tissue of a patient undergoing abdominal surgery were isolated as described before (Lindroos et al, Cell Metab. (2013), Jul. 2; 18(1):62-74.). Briefly, adipose tissue was digested with Collagenase II (Worthington) and filtered. SVFs were separated from mature adipocytes by centrifugation, followed by the lysis of erythrocytes in the SVF-fraction (Buffer EL, Qiagen). The purified SVFs were cultured in DMEM/F12, 10% FBS (Gibco, Life Technologies). As soon as the cells reached confluence, they were washed with DMEM/F12 w/o glucose (Biowest) and the medium was replaced by DMEM/F12 with a total carbohydrate load of 3 g/L, containing 1.5 g/L glucose and fructose or 1 g/L each of glucose, fructose, and sedoheptulose, respectively. […]
(§4) The XF-Analyzer (Seahorse Bio.) was used to measure changes in cellular metabolism induced by different carbohydrates. Extracellular acidification rates (ECAR, mpH/min) and oxygen consumption rates (OCR, pmoles/min) were recorded in primary human adipocytes and primary murine hepatocytes according to the manufacture instructions. […] Changes induced by the different carbohydrate sources were expressed as relative change in % to illustrate the effect of each carbon source.

[6] = test system: primary bone marrow derived macrophages; assay: Basal cytokine mRNA expression in primary bone marrow derived macrophages in GF or GFS media; assay type: cell-based, mouse; conditions: pre-cultured two days in GFS vs GF media
Protocol: as §1, §2

WT hepatocytes = assay: Glucose-induced ECAR in primary hepatocytes; assay type: cell-based, mouse; conditions: WT hepatocytes in GFS vs GF media, 1 hr carbohydrate starvation, then glucose 1 g/L
Protocol: as §3
as §4, with “instructions. Briefly, cells were seeded in seahorse cell plates at a density of 10^4 cells per well for adipocytes and 0.5×10^5 cells per well for hepatocytes.” for “instructions.”

[7] = Diet-derived sedoheptulose uptake in humans (serum GC-MS before/after carrot meal); assay type: in vivo, human; conditions: two hours after meal of mainly steamed carrots (~700 g) vs overnight fasted, n=4
Excerpt: Fresh carrots with an Austrian “organic-certificate” were sliced into small pieces and snap-frozen in liquid nitrogen. The same procedure was applied to leaves freshly harvested from indoor-grown Sedum Spectabile plants. Three samples of each tissue were pooled and homogenized to powder by glass-beads. The carbohydrate rich fractions of the samples were isolated by 20% H2O and 80% MeOH extraction solution spiked with 13C standards and processed for standard gas-chromatography coupled to mass spectrometry (GC-MS). Glucose and sedoheptulose were identified by their individual masses and their relative amount was derived from the peak area of each individual analyte normalized to 13C content. Glucose and sedoheptulose were also measured in equal volumes of serum from overnight fasted or carrot fed individuals. The carrots were steamed and some olive-oil, salt and pepper were used for flavour. Two hours before and two hours after the carrot containing meal human serum was prepared in VACUETTE® Z Serum Sep tubes from blood. Serum samples were processed as previously described and also analyzed by GC-MS as detailed above and in Ruiz-Matute A I et al., Chromatogr B Analyt Technol Biomed Life Sci. (2011) May 15 879(17-18).

[8] = test system: sedoheptulose kinase (CARKL); assay: Sedoheptulose kinase assay (ADP Quest, ADP formation); assay type: biochemical; conditions: constant amount of recombinant CARKL, constant ATP 150 μM, increased doses of sedoheptulose
Excerpt: The ADP Quest Assay (DiscoveRx) was used to indirectly measure […] formation by ADP accumulation over time according to the manufacture instructions. Recombinant sedoheptulose kinase was previously produced in E. coli and purified by affinity purification ([…] et al., Cell Metab. 15 (2012), 813-826).

Structure (SMILES): O=C(CO)[C@@H](O)[C@H](O)[C@H](O)[C@H](O)CO [sedoheptulose, Sedoheptulose]
- sedoheptulose kinase CARKL mRNA expression (primary human adipocytes [1]): increase
- basal IL-6 secretion [2]: blocked
- basal TNFa secretion [2]: blocked
- IL-6 mRNA (mature murine adipocytes): less
- TNFa mRNA (mature murine adipocytes): less
- G6PD activity distribution (re-localization of G6PD and reduced activity in the inner space of the cells, as in CARKL overexpressing cells) [3]: same phenotype was achieved
- pit formation by osteoclasts (osteoclasts; 7 days in GFS vs GF media, Corning Osteo Assay plates): reduced
- larger resorption-pits (osteoclasts; WT osteoclasts cultured in GF or GFS media): found only in the absence of sedoheptulose
- IL-6 expression [4]: less
- cellular oxygen consumption rate (OCR) (primary human adipocytes [5]): increased
- extracellular acidification rate (ECAR) (primary human adipocytes [5]): comparable
- basal IL-6 mRNA expression [6]: blocked
- basal TNFa mRNA expression [6]: blocked
- glucose-induced ECAR (WT hepatocytes): reduced
- increase in sedoheptulose serum levels [7]: approximately two-fold
- sedoheptulose turnover rate (ADP formation) [8]: enhanced
